Tests used:
E. coli AcrB = target: T1, E. coli AcrB (Escherichia coli, UniProt P31224); assay: Isothermal titration calorimetry (ITC) binding to purified AcrB
T1 construct: 4xHis (C); made in house; host or cells: E. coli BL21-Gold (DE3), plasmid derived from pSPORT1
Excerpt: We selected three compounds for further study, CU032, CU232, and CU244, because they incorporated different aspects of the parent structure, specifically the negative atoms on the benzene ring and the amine on opposite side of the molecule. To determine whether the EPMs could bind AcrB, we used purified E. coli AcrB, which is 95% identical to S. enterica Typhimurium AcrB. […] Here, we show with ITC that, like EPM35, the three analogs are capable of specifically interacting with AcrB to form complexes (Fig. S1; Table 1). Curiously, the analogs have KDs that are 25- to 50-fold larger than that of EPM35. […] Thus, the EPM analogs interact specifically with AcrB in a manner consistent with established EPM substrates.
AcrB protein was purified as described ([25]). Briefly, the AcrB protein contains a 4×His tag at the C-terminus and was overproduced in E. coli BL21-Gold (DE3) cells (Stratagene) using the plasmid derived from pSPORT1 (Invitrogen) ([79]). Cells were grown in 6 L of LB medium with 100 µg/mL ampicillin and disrupted with a French pressure cell. The membrane fraction was collected and washed twice with buffer containing 20 mM sodium phosphate (pH 7.2), 2 M KCl, 10% glycerol, 1 mM EDTA, and 1 mM phenylmethanesulfonyl fluoride (PMSF), and once with 20 mM HEPES–NaOH buffer (pH 7.5) containing 1 mM PMSF. The membrane proteins were then solubilized in 1% (wt/vol) n-dodecyl β-D-maltoside (DDM). Insoluble material was removed by ultracentrifugation at 370,000 × g. The extracted protein was purified with Cu^2+-affinity and G-200 sizing columns ([13], [80]). The purified AcrB protein was then concentrated to a final monomeric concentration of 10 µM in buffer containing 20 mM Na-HEPES (pH 7.5) and 0.05% DDM. Similar protein purification procedures were extensively used to elucidate structure-function of RND transporters, including AcrB ([13], [16], [25]), CusA ([81], [82]), MtrD ([83], [84]), CmeB ([85]), AdeB ([86]), HpnN ([87]), and MmpL3 ([88]).
Briefly, measurements were performed on a Microcal iTC200 (Malvern Panalytical) at 25°C. Before titration, the protein was dialyzed against buffer containing 20 mM Na-HEPES (pH 7.5), 0.05% […] (DDM), and 5% DMSO ([18]). The Bradford assay was used to quantify protein concentration, which was adjusted to a final monomeric concentration of 10 µM. Ligand solution consisting of 100 µM EPM in the aforementioned buffer was prepared as the titrant. Both the protein and ligand samples were degassed before loading the samples. Two-microliter injections of the ligand were used for data collection. Injections occurred at intervals of 60 s and lasted for 4 s. Heat transfer (µcal/s) was measured as a function of elapsed time (s). The mean enthalpies measured from injection of the ligand in the buffer were subtracted from raw titration data before data analysis with ORIGIN software (MicroCal). Titration curves fitted with a non-linear regression fitting to the binding isotherm provided the equilibrium binding constant (KA = 1/KD) and enthalpy of binding (ΔH). Based on the values of KA, the change in free energy (ΔG) and entropy (ΔS) were calculated with the equation ΔG = −RT lnKA = ΔH − TΔS, where T is […] and R is 1.9872 cal/K per mol. Calorimetry trials were also carried out in the absence of AcrB using the same experimental conditions.

[1] = system: Bacillus subtilis expressing mNeongreen-FtsZ; assay: Membrane voltage disruption assay (mNeongreen-FtsZ delocalization); format: cell-based; settings: 150 µM, 15 min, LPM 5.5
Excerpt: We therefore monitored membrane integrity in the presence of EPM analogs by evaluating membrane voltage with mNeongreen-FtsZ ([28][–][30]). The FtsZ protein localizes to the bacterial septum based on membrane potential, and rapid delocalization of fluorescent FtsZ reporters occurs when voltage across the membrane is disrupted ([31], [32]). We monitored mNeongreen-FtsZ localization in a Gram-positive bacterium, Bacillus subtilis, to eliminate the potentially confounding issue of the passage of EPM analogs through the outer membrane at different rates ([24], [33][–][36]).
To determine whether exposure to compound dislodges FtsZ from the cell septum, an overnight culture of Bacillus subtilis grown in LPM at pH 5.5 (LPM 5.5) expressing mNeonGreen-FtsZ (strain DK5092) was exposed to DMSO, CCCP (100 µM) or an EPM analog (150 µM) for 15 or 30 min, as indicated. Bacteria were immobilized on 1% agarose pads made with LPM under a coverslip. To set the threshold value for the FtsZ septal ring, mNeonGreen signal (excitation 488 nm, emission 525 nm) from at least 20 DMSO-treated cells was quantified using a CV1000 confocal microscope with a 100× oil, NA = 1.4 objective. A background-subtracted image was made by subtracting the median intensity from full original images. A signal threshold of ≥400 arbitrary units per pixel was set (Fig. 4B). Then, we manually confirmed that mNeonGreen signal above threshold was at the center of the bacterial rod. We examined 50 cells per sample from at least three biological replicates (≥150 cells per condition). A MATLAB program (https://github.com/Betterton-Lab/FtsZ-Quantification) counted the number of pixels above threshold per cell and averaged this value across all cells for each condition and this value is reported in the graph (Fig. 4C).

[2] = system: S. Typhimurium ΔacrAB mutant; assay: Growth (OD600) of ΔacrAB mutant in LPM 5.5; format: cell-based
Excerpt: (§1) LPM 5.5 is chemically defined, contains low phosphate and low magnesium, and is buffered to pH 5.5 ([34], [39][–][41]). […] It was further noted that mutant strains lacking acrAB or tolC grow poorly in LPM 5.5 compared to the corresponding wild type (Fig. 5C through F).
(§2) Fig 5 In LPM pH 5.5, acrAB and tolC are required for growth, and EPM analogs inhibit growth. (A and B) Optical density at 600 nm (OD600) and CFU per milliliter of S. Typhimurium in LPM 5.5 (at pH 5.5) or LPM 7 (at pH 7.0) in the presence of CU032. (C through F) OD600 in LPM 5.5 of (C and E) S. Typhimurium ΔacrAB mutant and wild-type strains, and (D and F) E. coli ΔtolC mutant and wild-type strains with (C, D) CU032 or (E and F) EPM35. Mean and SEM of three biological replicates are shown for A–F. The wild-type and mutant strain controls are the same for C and E and for D and F.

E. coli ΔtolC mutant = assay: Growth (OD600) of ΔtolC mutant in LPM 5.5; format: cell-based
Excerpt: as §1, §2

T1 sequence (P31224 whole entry): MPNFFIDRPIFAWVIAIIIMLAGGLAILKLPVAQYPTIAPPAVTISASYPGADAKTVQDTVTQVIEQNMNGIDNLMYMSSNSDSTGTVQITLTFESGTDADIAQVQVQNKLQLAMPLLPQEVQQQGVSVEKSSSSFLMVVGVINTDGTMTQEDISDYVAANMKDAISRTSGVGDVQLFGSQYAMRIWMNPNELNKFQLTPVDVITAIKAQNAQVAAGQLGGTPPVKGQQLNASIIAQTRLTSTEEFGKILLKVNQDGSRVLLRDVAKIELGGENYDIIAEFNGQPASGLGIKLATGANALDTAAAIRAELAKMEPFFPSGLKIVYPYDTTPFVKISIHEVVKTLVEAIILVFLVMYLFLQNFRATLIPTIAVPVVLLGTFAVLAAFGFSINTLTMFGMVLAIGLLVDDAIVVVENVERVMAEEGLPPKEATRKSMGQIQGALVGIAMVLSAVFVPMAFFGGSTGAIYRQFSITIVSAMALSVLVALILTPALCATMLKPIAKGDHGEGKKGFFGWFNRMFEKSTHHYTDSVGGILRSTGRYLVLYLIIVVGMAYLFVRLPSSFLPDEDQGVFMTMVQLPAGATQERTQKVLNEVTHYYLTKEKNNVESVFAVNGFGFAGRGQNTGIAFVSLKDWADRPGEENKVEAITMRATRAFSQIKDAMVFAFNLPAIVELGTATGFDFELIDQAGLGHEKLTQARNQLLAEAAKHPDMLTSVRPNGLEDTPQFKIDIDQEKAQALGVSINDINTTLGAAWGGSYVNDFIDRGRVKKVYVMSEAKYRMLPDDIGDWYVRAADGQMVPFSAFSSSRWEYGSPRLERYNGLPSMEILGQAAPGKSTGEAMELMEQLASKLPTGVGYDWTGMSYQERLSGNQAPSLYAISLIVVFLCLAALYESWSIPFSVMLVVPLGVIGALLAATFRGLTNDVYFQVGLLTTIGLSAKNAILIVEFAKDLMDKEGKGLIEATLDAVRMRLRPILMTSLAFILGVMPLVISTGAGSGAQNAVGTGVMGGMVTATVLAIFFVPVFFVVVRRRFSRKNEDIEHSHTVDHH

| Structure (SMILES) | ∆H (E. coli AcrB) | ∆S (E. coli AcrB) | effect on mNeongreen-FtsZ ring size / localization [1] | growth inhibition of ΔacrAB mutant compared to DMSO [2] | growth inhibition of ΔtolC mutant compared to DMSO (E. coli ΔtolC mutant) |
| --- | --- | --- | --- | --- | --- |
| NC1CCN(CC(O)COc2ccc(Cl)c(Cl)c2)C1 (stereo not shown) [CU032] | −1,947 ± 490 cal/mol | 15.60 cal/(mol deg) | no significant effect | does not strongly inhibit growth | does not strongly inhibit growth |
| NC1CCN(CC(O)COc2cccc(C(F)(F)F)c2)CC1 (stereo not shown) [CU232] | −2,124 ± 93 cal/mol | 16.30 cal/(mol deg) | no significant effect | – | – |
| OC(CN[C@H]1[C@@H]2CNC[C@@H]21)COc1cc(Cl)cc(Cl)c1 (stereo partly shown) [CU244] | −8,654 ± 1,384 cal/mol | −6.91 cal/(mol deg) | – | – | – |
| OC(COc1ccc(Cl)c(Cl)c1)CN1CCC(Nc2nccc(C(F)(F)F)n2)CC1 (stereo not shown) [EPM35] | – | – | did not alter FtsZ localization | does not strongly inhibit growth | does not strongly inhibit growth |
